# From patent US20250339391A1, “METHODS FOR EFFECTIVE MANAGEMENT OF PAIN” (South Rampart Pharma, Inc., priority 2024, published 2025)
# Entries after “also recorded” stand apart in the source; their conditions may differ. Like-named read-outs stand apart in the source and are kept apart here.
# Key:
# [1] = system: CD-1 male mice; details: for mortality by 72 hours: n=10
# Procedure: CD-1 male mice obtained from Charles River Laboratories underwent a one-week acclimation period. They were housed under a 12-hour day/night cycle, with unrestricted access to food and water. Before experimentation, mice were fasted for 15 hours. […] Each treatment group consisted of 10 mice. Post-dosing, the mice were monitored at 6-hour intervals over 72 hours for signs of becoming moribund. An investigator blinded to the treatment groups conducted the moribund state assessment.
# [2] = system: CD1 mice; details: for signs of hepatotoxicity: CD-1 mice; for animals dead in 48 hours: FIG. 1F experiment, data not shown
# Procedure: After drug administration, animals were returned to their respective cages and maintained with food and water provided ad libitum for the next 12 h. Animals were then euthanized under 5% isoflurane anesthesia after 12 h, and whole blood samples were collected transcardially in sterile microcentrifuge tubes without anti-coagulants. Whole blood samples were stored at room temperature (25° C.) for 30 min, allowing them to coagulate, which was centrifuged at 1,000 g for 5 min at 4° C. to isolate serum samples from whole blood, which were collected, aliquoted, and stored at −80° C. for identification of NAPQI, and liver function tests (LFTs).
# LFTs were done on fresh serum samples, and not on thawed frozen serum samples to avoid denaturing LFT transaminases due to freeze/thaw of frozen serum.
# Employing a consistent lethal dose for both compounds streamline the experimental design and facilitates data interpretation. This approach aligns with FDA guidelines on Bioequivalence and Bioavailability studies for estimating the maximum safe starting dose in humans, a strategy further substantiated by others. At 12 h post-injection, mice were deeply anesthetized under 5% isoflurane for more than 5 min and formalin-fixed via transcardial perfusion with 10% Neutral Buffered Formalin (NBF) after exsanguination using 0.9% NaCl. Liver tissues were extracted and stored in NBF for 24 h post fixation, after which they were then transferred to 80% EtOH for storage prior to paraffin embedding, sectioning, and immunological staining. FFPE blocks were sectioned into 5 μm thick slices on regular frost-free plus slides and dried overnight on a slide warmer. After deparaffination, sections were stained with validated antibodies for nitrotyrosine and ZO-1 (tight junctions). […] Nitrotyrosine labeling was detected with 3′3′-Diaminobenzidine (DAB) staining, and nitrotyrosine labeled hepatic sections were imaged at 100× magnification in brightfield using a Nikon Eclipse TS100 microscope with NIS-Elements BR 3.0 software (NIKON Inc, Melville, NY, USA). Slides with ZO-1 staining were imaged in z-stacks obtained at 20× magnification using Olympus FV-1200 confocal microscope with Fluoview software FV10-ASW Version 04.02.02.09 (Olympus Corp Center Valley, PA, USA). Quantification of ZO-1 staining hepatic tight junctions was carried out by unbiassed image analysis calculating area sum of pixel^2 of the green channel staining ZO-lusing CellSens software (Olympus Corp Center Valley, PA, USA).
# [3] = system: CD1 (young male and female) or C57BL/6 (aged male) mice; assay: Acetic acid-induced abdominal writhing visceral pain assay; type: in vivo, mouse; details: for analgesia in acetic acid-induced writhing assay: 100 mg/kg, all cohorts; for antinociception in acetic acid writhing: 32 and 100 mg/kg PO, 0.4% acetic acid ip
# Procedure: In this model of visceral pain, abdominal contraction (writhing) in which contraction of the abdominal muscles and stretching of the hind limbs is induced in mice in response to an ip injection of 0.4% acetic acid at a dose of 10 mL/kg 25 min after drug administration is assessed. Specifically, the number of writhes is counted for 10 min beginning 5 min after acetic acid injection. […] CD1 (young male and female) or C57BL/6 (aged male) mice were used. For the abdominal writhing assays, we used n=35 aged male mice, n=70 young male mice, and n=70 young female mice.
# [4] = system: male CD1 mice; assay: Baker yeast-induced hyperthermia antipyresis assay; type: in vivo, mouse; details: 15% yeast ip, drug 75 mg/kg per os
# Procedure: Antipyresis experiments were carried out with n=60 CD-1 male mice weighing between 45-50 g. All mice were kept in a 12-h day/12-h night cycle with free access to food and water ad libitum. After habituating and acclimating the mice for a week, each mouse was briefly anesthetized for 1 min with 1% isoflurane and implanted subcutaneously a transmitter probe that records core body temperature—Implantable Programmable Temperature Transponder (IPTT-300) by Bio Medic Data Systems (BMDS), DE, USA. The mice were allowed to recover for at least one week from the surgery before any recordings were made and observed in their home cages prior to pyrogen challenge for inducing fever. Temperatures were recorded using the BMDS DAS-8027-IUS data reading system.
# (15% yeast, […]) (MilliporeSigma, Billerica, MA, USA) was used to induce fever. All animals used in this assay were male CD1 mice, which were fasted overnight (15 h) before the start of the assay. Mice received either yeast in 0.9% saline (sterile) (vehicle) or just 0.9% saline as an ip injection. […] All mice that didn't show a significant change in body temperature or appeared sick post-pyrogen challenge were excluded (n=5) from subsequent drug administrations.
# Drug injection/concentration: All drugs and vehicle (10% DMSO: 10% labrasol:80% PEG400) were administered by oral gavage, PO administration. […]
# [5] = system: CD1 (young male and female) or C57BL/6 (aged male) mice; assay: Cold tail flick somatic pain assay; type: in vivo, mouse; details: for analgesia in cold tail-flick assay: 100 mg/kg, all cohorts; for tail withdrawal time (latency) to cold stimulation: 32 and 100 mg/kg PO, 4 °C water
# Procedure: Half of the tail was immersed in ice-cold water maintained at 4° C. For the tail-flick assays, we used n=70 aged male mice, n=90 young male mice, and n=120 young female mice. Based on the availability of mice at the time of the experiments, different numbers of animals were assigned in different cohorts of experimental animals. Tail flick assay experiments were conducted on an open bench in a dedicated room at the LSUHSC New Orleans Neuroscience Center of Excellence vivarium. Mice were allowed to acclimate to the laboratory environment for 1 h prior to testing. To restrain the mice for the test, disposable plastic 50 mL screw-capped conical centrifuge tubes were cut at the tip to create a 0.5 cm opening to allow the mice to breathe freely. Another 0.5 cm opening was cut into the cap to allow access of the tail to the water bath. A 500 mL glass beaker was filled with 450 mL of ice-cold distilled water maintained at 4° C. with the addition of ice and determined with a glass thermometer. Mice were held over the opening of the water bath, and their tails submerged approximately halfway into the water. The nociceptive threshold was taken as the latency until the mice flicked their tail tip or removed the tail. The time from immersion to the attempted tail tip removal was measured to 1/10th of a sec with a digital laboratory timer. To minimize damage to the tail, a 60-sec cut-off was utilized. […] Injections were at doses of 32 mg/kg and 100 mg/kg. 30 min post-drug administration tail-flick/withdrawal latency was measured.
# [6] = 992 oral gavage (ApAP 150 mg/kg, SRP-001 402 mg/kg)
Compound,"mortality by 72 hours [1, 6]","mortality by 72 hours ([1]; 1,984 oral gavage (ApAP 300 mg/kg))","mortality by 72 hours ([1]; 3,969 oral gavage (ApAP 600 mg/kg))",mortality reached within 72 hours (Kaplan-Meier) ([1]; highest dose),"hepatic tight junctions by ZO-1 staining ([2]; CD1 mice, 600 mg/kg PO, 12 h, 600 mg/kg)",signs of hepatotoxicity ([2]; 600 mg/kg),animals dead in 48 hours [2],analgesia in acetic acid-induced writhing assay [3],antinociception in acetic acid writhing [3],"antipyresis, core body temperature [4]",analgesia in cold tail-flick assay [5],tail withdrawal time (latency) to cold stimulation [5],"centrilobular necrosis / nitrotyrosine staining of liver sections ([2]; CD1 mice, 600 mg/kg PO, 12 h)","liver transaminases ALT and AST ([2]; CD1 mice, 600 mg/kg, serum)","TUNEL-positive apoptotic nuclei in liver sections ([2]; mouse, in vivo, 600 mg/kg)",equimolar (μmol/kg) ED50 / dose-response curve relative to ApAP ([3]; acetic acid writhing),equimolar (μmol/kg) ED50 / dose-response curve relative to ApAP ([5]; tail flick)
"CC(=O)Nc1ccc(O)cc1 [ApAP, acetaminophen]",absence of mortality,1/10,3/10,70%,significant reduction in ZO-1-stained tight junctions; also recorded: marked decrease in ZO-1,hepatotoxicity is evident,75%,significant analgesia,experienced antinociception,subsequent reduction in core body temperature,significant analgesia,increased tail withdrawal time (latency),,,,,
"CCN(CC)C(=O)c1ccccc1S(=O)(=O)NCC(=O)Nc1ccc(O)cc1 [SRP-001, N,N-diethyl-2-[[2-(4-hydroxyanilino)-2-oxo-ethyl]sulfamoyl]benzamide]",absence of mortality,,,,,no signs of hepatotoxicity,none,significant analgesia,experienced antinociception,subsequent reduction in core body temperature,significant analgesia,increased tail withdrawal time (latency),lack nitrotyrosine staining,not observed,almost no TUNEL signal,comparable or improved ED50; also recorded: shifted to the left; also recorded: clear shift to the left,comparable or improved ED50; also recorded: clear shift to the left
